Data taken from patent US20200078379A1, “DEFEROXAMINE DERIVATIVES AS MEDICAMENTS” (BIOTECHNOLOGICKY USTAV AV CR, V.V.I., priority 2017, published 2020).
Where two headings read alike, the source gives them in different places.

Tests used:
MCF7 cells [1] = assay: crystal violet assay, cellular viability; type: cell-based, human
Method: (§1) Compound 1 and compound 2 were tested in their efficacy to kill malignant MCF7 cancer cells. Briefly, 10.000 cells per well were seeded in a 96-well plat on one day and the next day selected compounds were added and incubated with the cells for 48 hrs. The cells were then fixed with 4% paraformaldehyde, stained with 0.05% crystal violet, washed with PBS, and solubilized in 1% SDS. The absorbance of the plate at 595 nm was then measured, quantifying the number of viable cells.
(§2) A number of compounds of the present invention were tested for cytotoxicity towards at least some of human breast cancer cell lines (MCF7, MDA-MB-231), human fibroblast (BJ) and murine triple negative breast cancer cell line 4T1 (Table 2).

T47D cells [2] = assay: crystal violet assay, cellular viability; type: cell-based; details: for IC50: Homo sapiens
[3] = system: murine triple negative breast cancer cell line 4T1; assay: crystal violet assay, cellular viability; type: cell-based; details: Mus musculus, 4T1, 48 hours
Method: as §1, §2

[4] = system: non malignant cells (BJ), human fibroblast; assay: crystal violet assay, cellular viability; type: cell-based
Method: as §1, §2

NIH:OVCAR-3 cells = assay: crystal violet assay, cellular viability; type: cell-based; details: Homo sapiens, NIH:OVCAR-3, 48 hours
CFPAC-1 cells = assay: crystal violet assay, cellular viability; type: cell-based; details: Homo sapiens, CFPAC-1, 48 hours
PaTu 8902 cells = assay: crystal violet assay, cellular viability; type: cell-based; details: PaTu 8902, 48 hours
MCF7 cells [5] = assay: AnnexinV/PI cell death assay; type: cell-based, human; details: for mean percentage of dead cells (AnnexinV/PI): 48 hrs
Method: (§3) Briefly, cells were seeded in 12-well plate at 100,000 per well, incubated with the selected compounds for 48 hours, then floating cells were spun, adherent cells trypsinized and spun as well followed by the staining with AnnexinV-FITC and PI probes. Cells were then washed with PBS and measured via Fluorescence Activated Sorter.

T47D cells [6] = assay: AnnexinV/PI cell death assay; type: cell-based; details: 48 hrs
Method: as §3, with “To confirm such findings by an independent method, cell death-inducing potency (cytotoxic efficacy) of DFO and compound 2 have been tested via annexin V/PI staining commonly used as a measure of apoptotic/necrotic cell death. Briefly,” for “Briefly,”
Since compound 2 is an iron chelator, we have evaluated the effect of pretreating compound 2 with iron. at a 1:1 ratio by using the Annexin V/PI staining as in example 7.

MDA-MB-231 cells = assay: AnnexinV/PI cell death assay; type: cell-based, human; details: 48 hrs
Method: as §3, with “To confirm such findings by an independent method, cell death-inducing potency (cytotoxic efficacy) of DFO and compound 2 have been tested via annexin V/PI staining commonly used as a measure of apoptotic/necrotic cell death. Briefly,” for “Briefly,”

MCF7 cells [7] = assay: cellular respiration, OXYGRAPH instrument; type: cell-based, human
Excerpt: Application of compound 2 leads to marked inhibition of cellular respiration as evidenced by two independent methods: the Oxygraph instrument (Rohlenova, K., Sachaphibulkij, K., Stursa, J., Bezawork-Geleta, A., Blecha, J., Endaya, B., Werner, L., Cerny, J., Zobalova, R., Goodwin, J., Spacek, T., Alizadeh, P. E., Yan, B., Nguyen, M. N., Vondrusova, M., Sobol, M., Jezek, P., Hozak, P., Truksa, J., Rohlena, J., Dong, L. F., & Neuzil, J. (2017) Selective Disruption of Respiratory Supercomplexes as a New Strategy to Suppress Her2high Breast Cancer. Antioxid. Redox. Signal., 26, 84-103) (Table 6) and Seahorse instrument (Table 7). For Seahorse analysis, 20.000 or 30.000 cells were seeded in 96 well plates and incubated with compound 2 for 1 hour. Afterwards, oxygen consumption rate (OCR) and extracellular acidification rate (ECAR) were measured in three cycles of 3 minutes preceded by 3 minutes of mixing, using a Seahorse XFe96 analyzer (Agilent). Results express the mean values of the three cycles.

non malignant cells (BJ) = assay: cellular proliferation in real time, Xcelligence technology; type: cell-based, human
Method: The ability of compound 2 to affect the proliferation and cell death induction in real time was monitored by the Xcelligence technology that detects changes in electrical impedance related to the cell number. In brief, special 16-well e-plates containing gold electrodes were filled with medium, blank values were recorded, and then 5.000 cells per well were seeded in the plate and let to attach for 2 hours, followed by the addition of compounds. The electrical impedance was then monitored over time in real-time every 15 minutes. In this case a line is drawn that reflects the cell number over time. […] We have seen a clear inhibition of proliferation with compound 2 at 1 μM, complete block of proliferation at 2 μM concentration, while the cytotoxic effect is seen at 5 μM (Table 9).

[8] = system: murine triple negative breast cancer cells line 4T1; assay: tumor growth in vivo, 4T1 model; set-up: species or system Balb/c gamma mice; details: for Relative tumor size: 4T1, 8 mg/kg i.p. twice per week
Method: In order to define the effect of compound 2 on tumor growth and progression in vivo, we tested its effect on the model of syngeneic murine triple negative breast cancer cells line 4T1, Balb/c gamma mice being the […] host. Mice were injected with 1 million of cells s.c. on the right flank. After appearance of tumors (15-60 mm^3) mice were randomized into two separate group, one receiving corn oil (control) and one receiving compound 2 at 8 mg/kg. Tumor progression was then monitored by ultrasound imaging Vevo770 and mice received the treatment twice per week, i.p. in approximately 100 ul of corn oil.

SMILES: CC(=O)N(O)CCCCCNC(=O)CCC(=O)N(O)CCCCCNC(=O)CCC(=O)N(O)CCCCCN(CCCCCCCCCC[P+](c1ccccc1)(c1ccccc1)c1ccccc1)CCCCCCCCCC[P+](c1ccccc1)(c1ccccc1)c1ccccc1.[Cl-].[Cl-] [Compound 2, Triphenyl(3,14,25-trihydroxy-2,10,13,21,24-pentaoxo-31-(10-(triphenylphosphonio)decyl)-3,9,14,20,25,31-hexaazahentetracontan-41-yl)phosphonium chloride]
- Selectivity index (IC50 non-malignant/IC50 malignant) (MCF7 cells [1]; BJ vs MCF7, 48 hours): 12.43
- IC50 (MCF7 cells [1]; Homo sapiens, MCF7, 48 h, crystal violet, read-out: IC50 cellular viability): 1200 nM
- IC50 (MCF7 cells [1]; Homo sapiens, MCF7, MCF7 Parental, read-out: IC50 crystal violet): 1500 nM
- viability at 1 µM (MCF7 cells [1]; Homo sapiens, MCF7, 1 μM, 48 hrs, crystal violet, read-out: mean percentage of viable cells compared to non-treated controls): 56.9%
- viability at 2 µM (MCF7 cells [1]; Homo sapiens, MCF7, 2 μM, 48 hrs, crystal violet, read-out: mean percentage of viable cells compared to non-treated controls): 20%
- viability at 5 µM (MCF7 cells [1]; Homo sapiens, MCF7, 5 μM, 48 hrs, crystal violet, read-out: mean percentage of viable cells compared to non-treated controls): 10%
- viability at 10 µM (MCF7 cells [1]; Homo sapiens, MCF7, 10 μM, 48 hrs, crystal violet, read-out: mean percentage of viable cells compared to non-treated controls): 12.1%
- Selectivity index (IC50 non-malignant/IC50 malignant) (T47D cells [2]; BJ vs T47D, 48 hours): 4.77
- IC50 (T47D cells [2]; T47D Parental, read-out: IC50 crystal violet): 3000 nM
- IC50 (T47D cells [2]; T47D, 48 hours, crystal violet, read-out: IC50 cellular viability): 3000 nM
- IC50 [3]: 2000 nM
- Selectivity index (IC50 non-malignant/IC50 malignant) ([4]; BJ vs BJ (reference)): 1
- IC50 ([4]; Homo sapiens, Fibroblast, BJ non malignant, 48 hours, crystal violet): 14300 nM
- IC50 (NIH:OVCAR-3 cells): 3700 nM
- IC50 (CFPAC-1 cells): 6900 nM
- IC50 (PaTu 8902 cells): 5500 nM
- mean percentage of dead cells (AnnexinV/PI) (MCF7 cells [5]; MCF7, 5 μM): 35.6%
- mean percentage of dead cells (AnnexinV/PI) (MCF7 cells [5]; MCF7, 10 μM): 43.7%
- mean percentage of dead cells (AnnexinV/PI) (MCF7 cells [5]; MCF7, 20 μM): 64.0%
- percentage of death cells by annexinV/PI staining (MCF7 cells [5]; MCF7, ratio Ga:compound 2 0:1, 10 μM compound 2 alone): 35.3 (0.5)
- mean percentage of dead cells (AnnexinV/PI) (T47D cells [6]; 5 μM): 38.3 (5.8) %
- mean percentage of dead cells (AnnexinV/PI) (T47D cells [6]; 10 μM): 41.2 (3.1) %
- mean percentage of dead cells (AnnexinV/PI) (T47D cells [6]; 20 μM): 93.6 (1.3) %
- mean percentage of dead cells (AnnexinV/PI) (MDA-MB-231 cells; MDA-MB-231, 5 μM): 39.8%
- mean percentage of dead cells (AnnexinV/PI) (MDA-MB-231 cells; MDA-MB-231, 10 μM): 78.5%
- mean percentage of dead cells (AnnexinV/PI) (MDA-MB-231 cells; MDA-MB-231, 20 μM): 98.0%
- mean O2 flow per cells (MCF7 cells [7]; MCF7, 5 μM): 15.9 pmol/s/mL
- mean O2 flow per cells (MCF7 cells [7]; MCF7, 5 μM (5 h)): 9.8 pmol/s/mL
- mean O2 flow per cells (MCF7 cells [7]; MCF7, 25 μM): 7.1 pmol/s/mL
- slope of the line (relative number of cells in relation to time) (non malignant cells (BJ); 0-15 h, 1 μM): 1.14
- slope of the line (relative number of cells in relation to time) (non malignant cells (BJ); 0-15 h, 2 μM): 1.07
- slope of the line (relative number of cells in relation to time) (non malignant cells (BJ); 0-15 h, 5 μM): 0.83
- slope of the line (relative number of cells in relation to time) (non malignant cells (BJ); 0-36 h, 1 μM): 1.08
- slope of the line (relative number of cells in relation to time) (non malignant cells (BJ); 0-36 h, 2 μM): 0.90
- slope of the line (relative number of cells in relation to time) (non malignant cells (BJ); 0-36 h, 5 μM): 0.47
- effect on cellular proliferation of non-malignant BJ cells, in words (non malignant cells (BJ); Xcelligence, 5 μM): very mild and statistically non-significant effect
- effect on relative tumor growth, in words ([8]; 4T1, 8 mg/kg): significantly reduces relative tumor growth
- Relative tumor size ([8]; Day 0): 1.0
- Relative tumor size ([8]; Day 4): 1.3
- Relative tumor size ([8]; Day 7): 1.1
- Relative tumor size ([8]; Day 11): 1.4
- Relative tumor size ([8]; Day 14): 1.6
- Relative tumor size ([8]; Day 18): 2.5
